Each structure is given as a SMILES string.

For assay [1], the target named is apamin-sensitive potassium channels. As to the kind of experiment: Binding of ^125 I-apamin to bovine cerebral membrane. The conditions noted are these: ^125 I-apamin 30 pM, calf hippocampus membranes, 60 min on ice. How it is done: (§1) The compounds according to the invention are ligands for apamin-sensitive potassium channels. This can be shown by studying the affinity for apamine binding sites, e.g. in bovine cerebral membranes.
1) Binding of ^125 I-apamin to bovine cerebral membrane
Calf brains were obtained from the local abattoir. The hippocampus was prepared on ice and a membrane suspension was made up by homogenization twice in buffer (100 mM Tris-HCl, KCl 5 mM, pH 7.4) and centrifugation at 43,000×g. In a total volume of 500 μl, the incubation mixture contained 200 μg of membrane protein, 30 pM ^125 I-apamine and test substances in the concentration range 1×10^-9 to […]. The non-specific binding of ^125 I-apamin was determined in the presence of 1×10^-7 M unlabelled apamin.
After preincubation for 30 min at room temperature (test substances and membrane homogenate), the samples were placed on ice for 10 min before the radioligand was added. The main incubation time was 60 min on ice. When the reaction time had elapsed, an excess of ice-cooled incubation buffer was added to each sample and the mixture was filtered with suction through cellulose acetate/nitrate membrane filters. The amount of bound ^125 I-apamin was measured with a gamma counter.

Assay [2] relates to potassium channel (PC12 cells). The assay is described as follows: Non-radioactive Rb^+ efflux assay for the identification of potassium channel modulators. The assay is classed as cell-based. The settings on record: 50 mM KCl stimulation, 10 min. Here is the method:
as §1
2) Non-radioactive Rb^+ efflux assay for the identification of potassium channel modulators
The potassium in PC12 cells is exchanged with rubidium, which is not present in the cells. This exchange is performed by incubating the cells over a period of 4 h in a physiological buffer containing 5.4 mM RbCl without KCl. This rubidium subsequently serves as a tracer for potassium.
The cells laden with Rb^+ in this way are washed three times and then stimulated by depolarization with 50 mM KCl to open potassium channels (10 min), causing Rb^+ to flow out of the cells into the supernatant according to the concentration gradient. The rubidium contents in the cell supernatant and in the residual cells after they have been lysed with 1% Triton X-100 are then determined by means of atomic absorption spectroscopy. The relative proportion of rubidium in the cell supernatant (=Rb^+ efflux) is used as a measure of the potassium channel activity.
The effect of substances on the channel activity is measured by co-incubating the test substance over the ten-minute stimulation period and determining its effect on the Rb^+ efflux in the manner described above.

`CCN(CC)c1nc(N2CCCN(c3nc(N(CC)CC)c4ccccc4n3)CCC2)nc2ccccc12` [Example 1, 1,5-Bis-(4-diethylaminoquinazolin-2-yl)-[1,5]-diazoxane] had a Ki in assay [1] of 340 nM. Consider `CCN(CC)c1nc(NCC23C=CC(CC2)C2CN(c4nc(N(CC)CC)c5ccccc5n4)CC23)nc2ccccc12.Cl.Cl` (stereo not shown) [Example 2, N^2-[4-(4-Diethylamino-quinazolin-2-yl)-4-aza-tricyclo[5.2.2.0^2,6]undec-8-en-1-yl-methyl]-N^4,N^4-diethyl-quinazoline-2,4-diamine dihydrochloride], for which the “% inhibition of the Rb efflux at a test concentration of 10 μM” value in assay [2] turned out to be 72%. Consider `CCN(CC)c1nc(N2CCCN(c3nc(N(CC)CC)c4ccccc4n3)CC2)nc2ccccc12` [Example 3, 1,4-Bis-(4-diethylamino-2-quinazolyl)-1,4-diazacycloheptane], for which the “% inhibition of the Rb efflux at a test concentration of 10 μM” value in assay [2] turned out to be 63%. `CCN(CC)c1nc(N2CCCN(c3nc(N(CC)CC)c4cc(Cl)ccc4n3)CC2)nc2ccc(Cl)cc12` [Example 4, 1,4-Bis-(6-chloro-4-diethylamino-2-quinazolyl)-1,4-diazacycloheptane] returned a Ki in assay [1] of 140 nM.

For the origin of these results see patent publication US5874438A, “2,2'-bridged bis-2,4-diaminoquinazolines” (Bayer Aktiengesellschaft, priority 1996, dated 1999).
